The text below walks through data of patent US20260345647A1, “AST-3424 COMBINATION FOR TREATING LEUKEMIA AND LYMPHOMA” (ASCENTAWITS PHARMACEUTICALS, LTD., priority 2022, published 2026).

Data set [1] relates to SUP-T1 cells. The data set is described as follows: In vitro cell proliferation assay, monotherapy (CellTiter-Glo). To be noted: Homo sapiens. Type of data set: cell-based. The protocol: (§1) On day 1, cells were seeded in 96-well cell culture plates (at 180 μL/well).
(§2) On day 2, 20 μL of a 10-fold test concentration of the working solution of the compound (AST-3424) was added. The cell plates were gently agitated, and were then placed in an incubator at 37 °C for further culture.
(§3) On day 3, 20 μL of a 10-fold test concentration of the solution of the compound (cytarabine and daunorubicin) was added. The cell plates were gently agitated, and were then placed in an incubator at 37 °C for further 72 hours.
(§4) After incubation, to the cell plates was added a reagent prepared according to the Protocol for a […] CellTiter-Glo Reagent (50 μL/well). The plates were thoroughly agitated and were then incubated at room temperature in the dark for 10 minutes.
(§5) The cell plates were placed in a plate reader for analysis to detect chemiluminescence and record the data.
(§6) The readings in each well should be converted into cell viability, which was calculated by the following formula:
(§7) • 1. MOLT-4 and MOLT-3 were derived from a patient with acute lymphoblastic leukemia in relapse who had previously received polydrug combination chemotherapy. The MOLT-4 cell line was originated from T lymphocytes, wherein there is a G→A mutation in Codon 248 of the p53 gene with no expression of p53, immunoglobulin or Epstein-Barr virus, resulting in high levels of terminal deoxyribosyl transferase, and expression of CD1 (49%), CD2 (35%), CD3 A (26%) B (33%) C (34%), CD4 (55%), CD5 (72%), CD6 (22%), and CD7 (77%). The cell is a human acute lymphoblastic leukemia cell, and the corresponding disease is human T-cell acute lymphoblastic leukemia, or T-ALL. • 2. PF-382 is a human T-cell acute lymphoblastic leukemia cell, and the corresponding disease is human T-cell acute lymphoblastic leukemia, or T-ALL. • 3. Jurkat, Clone E6-1 is a clone of the Jurkat-FHCRC cell line, a derivative of the Jurkat cell line, which was established from the peripheral blood of a patient suffering from T-cell acute leukemia. It is a human T lymphocytic leukemia cell, and the corresponding disease is T-ALL. • 4. SUP-T1 is a human T lymphoblastoma cell, and the corresponding disease is T-cell Lymphoblastic Lymphoma (T-LBL). • 5. CCRF-CEM is a human acute lymphoblastic leukemia, T lymphocyte serum culture cell, which was obtained in November 1964 from the peripheral blood leukocytes of a patient suffering from acute lymphoblastic leukemia. The cell is a human T-cell acute lymphoblastic leukemia cell, and the corresponding disease is T-cell acute lymphoblastic leukemia, or T-ALL.
In general terms: ATP-based viability assays read luminescence as a measure of living cells.

The subject of data set [2] is Jurkat, Clone E6-1 cells. The description is as above. It is filed as cell-based. Conditions: Homo sapiens. Here is the method: as §1, §2, §3, §4, §5, §6, §7
The subject of data set [3] is MOLT-4 cells. The data set is described as above. It is filed as cell-based. Conditions: Homo sapiens. The protocol: as §1, §2, §3, §4, §5, §6, §7
Data set [4] has as its system PF-382 cells. The description is as above. It is filed as cell-based. To be noted: Homo sapiens. Here is the method: as §1, §2, §3, §4, §5, §6, §7
In data set [5] the test system is CCRF-CEM cells. The data set is described as above. It is filed as cell-based. To be noted: Homo sapiens. Here is the method: as §1, §2, §3, §4, §5, §6, §7
For the next data set, the system named is HepG2. To be noted: HepG2, high AKR1C3 expression; cited from earlier work.
For another data set, the system named is TGF-β signaling pathway. To be noted: cited from earlier work.
The next data set concerns cancer cells. To be noted: cited from earlier work.
The subject of a further data set is tumor cells. Conditions: Transwell; MMP-9; cited from earlier work.
The test system of data set [6] is liver cancer cells. Conditions: flow cytometry; Bax, Caspase3, PARP; cited from earlier work.
Another data set deals with PLC/PRF/5. To be noted: PLC/PRF/5, high AKR1C3 expression; cited from earlier work.
In data set [7] the test system is five cell lines including CCRF-CEM, PF-382, Jurkat, Clone E6-1, SUP-T1, and MOLT-4. Nature of the data set: In vitro cell proliferation assay, monotherapy, summary over five cell lines. Type of data set: cell-based, human. Conditions: for inhibitory effects on cell proliferation: monotherapy, five cell lines. The protocol:
as §1, §2, §3, §4, §5, §6, §7

The test system of data set [8] is SUP-T1 cells. The data set is described as follows: In vitro cell proliferation assay, combination therapy (CellTiter-Glo). Type of data set: cell-based, human. Conditions: 0.13 nM and 1 nM AST-3424. Here is the method: as §1
(§8) On day 2, 10 μL of a 20-fold test concentration of the AST-3424 solution (20-fold concentration of either of the two concentrations IC25 and IC10) was added. The cell plates were gently agitated, and were then placed in an incubator at 37 °C for further culture.
(§9) On day 3, to the combination therapy wells was added 10 μL of a 20-fold test concentration of the compound (cytarabine or daunorubicin) (20-fold concentration of each of the three concentrations IC50, IC25, and ICs), and to the monotherapy wells was added 10 μL of a culture medium containing 2% DMSO. The cell plates were gently agitated, and were then placed in an incubator at 37 °C for further 72 h.
(§10) After incubation, a reagent prepared according to the instructions for the CellTiter-Glo Reagent was added (at 50 μL/well). The cell plates were agitated thoroughly and were then incubated at room temperature in the dark for 10 minutes.
(§11) The cell plate was placed in a plate reader for analysis to detect chemiluminescence and record the data.
(§12) The readings in each well should be converted into cell viability, which was calculated by the formula as described in section 1.1.
(§13) The final viability percentages under different conditions were plotted into column charts.

Data set [9] has as its system Jurkat, Clone E6-1 cells. The description is as above. Type of data set: cell-based, human. Conditions: 0.64 nM and 16 nM AST-3424. The protocol:
as §1, §8, §9, §10, §11, §12, §13

Data set [10] has as its system MOLT-4 cells. The data set is described as above. Type of data set: cell-based, human. The protocol: as §1, §8, §9, §10, §11, §12, §13
Data set [11] concerns PF-382 cells. The description is as above. Type of data set: cell-based, human. To be noted: 0.64 and 2.5 nM AST-3424. The protocol: as §1, §8, §9, §10, §11, §12, §13
In data set [12] the test system is CCRF-CEM cells. The data set is described as above. It is filed as cell-based, human. To be noted: 0.1 nM and 1 nM AST-3424. The protocol:
as §1, §8, §9, §10, §11, §12, §13

Data set [13] relates to liver cancer cells. To be noted: flow cytometry; cited from earlier work. (In general: A flow cytometer gives signals particle by particle.)
In data set [14] the test system is acute lymphoblastic leukemia. To be noted: cited from earlier work.
For data set [15], the system named is neuroblastoma and rhabdomyosarcoma. Conditions: cited from earlier work.
The conditions of data set [16]: cited from earlier work.
Data set [17] is described as follows: Clinical plasma concentration (dose comparison and conversion). Type of data set: in vivo. From the text: Both daunorubicin and cytarabine are drugs used in clinical practice to treat leukemia or other tumors.
[18] abbreviates: monotherapy, 72 hours, read-out: IC50.
Where [19] appears, read: experiments that were conducted previously, read-out: IC50 (superscript 2).

pIC50: −log10 of the molar value. “Also recorded” adds a separate entry of the source. Counter-ions that a name gives are not always drawn. Like-named read-outs stand apart in the source and are kept apart here.

On to `COc1cccc2c1C(=O)c1c(O)c3c(c(O)c1C2=O)C[C@@](O)(C(C)=O)C[C@@H]3O[C@H]1C[C@H](N)[C@H](O)[C@H](C)O1` [Daunorubicin hydrochloride, daunorubicin hydrochloride, reference compound], for which the pIC50 in the data set on SUP-T1 cells [1] (setting [18]) was 7.51; with Jurkat, Clone E6-1 cells [2] (setting [18]) it was 7.39; in the data set on MOLT-4 cells [3] (setting [18]) it was 7.62; in the data set on PF-382 cells [4] (setting [18]) it was 7.85; with CCRF-CEM cells [5] (setting [18]), 7.51.
Consider `C[C@H](OP(=O)(N1CC1)N1CC1)c1ccc([N+](=O)[O-])c(Oc2cccc(C(=O)N(C)C)c2)c1` [AST-3424], for which the inhibitory effects entry in the data set on HepG2 and in the data set on PLC/PRF/5 was “excellent inhibitory effects” each time. Further, in the data set with TGF-β signaling pathway, the “effect on TGF-β signaling pathway / proliferation” value is “could reduce the proliferation effect by inhibiting the TGF-β signaling pathway”. The pIC50 in the data set on SUP-T1 cells [1] (setting [19]) was 8.43; in the data set on SUP-T1 cells [1] (setting [18]) it was 8.61; with Jurkat, Clone E6-1 cells [2] (setting [19]), 7.62; in the data set on Jurkat, Clone E6-1 cells [2] (setting [18]) it was 5.34; in the data set with MOLT-4 cells [3] (setting [19]) it was 8.00; in the data set on MOLT-4 cells [3] (setting [18]), 8.09. The pIC50 is 8.52 in the data set with PF-382 cells [4] (setting [19]), 8.39 in the data set with PF-382 cells [4] (setting [18]), 7.83 with CCRF-CEM cells [5] (setting [19]) and 8.43 in the data set on CCRF-CEM cells [5] (setting [18]). The “toxicity to cancer cells” value in the data set with cancer cells (AST-3424 itself (prodrug)) is “low toxicity to cancer cells”. Further, the “dependence of potency on AKR1C3 expression level” value in the data set on cancer cells (animal models and in vitro pharmacological experiments) is recorded as “dependent on the level of AKR1C3 expression; also recorded: positively correlated with AKR1C3 expression levels”. Moreover, in the data set on tumor cells, the “migration and invasion of tumor cells” value is “could inhibit the migration and invasion of tumor cells”. Also, the apoptosis induction entry in the data set on liver cancer cells [6] is “may induce apoptosis by upregulating Bax and Caspase3 proteins and downregulating the PARP protein”. In addition, the “in vitro cytotoxicity compared with daunorubicin and cytarabine” value in data set [7] (four cell lines except Jurkat, Clone E6-1) was “superior to that of daunorubicin and cytarabine”. Also, the “inhibitory effects on cell proliferation” value in data set [7] was “good inhibitory effects”. In addition, the “effect on proliferation, AST-3424 monotherapy” value is given as “no effect” in the data set with SUP-T1 cells [8]; “no significant effect” in the data set on Jurkat, Clone E6-1 cells [9]; “no significant effect” with MOLT-4 cells [10] (3.2 nM and 6.4 nM AST-3424); “no significant effect” in the data set with PF-382 cells [11]; “no effect” in the data set with CCRF-CEM cells [12]. In addition, the cell cycle block result in the data set with liver cancer cells [13] was “could block the cells in the S phase”.
With `COc1cccc2c1C(=O)c1c(O)c3c(c(O)c1C2=O)C[C@@](O)(C(C)=O)C[C@@H]3O[C@H]1C[C@H](N)[C@H](O)[C@H](C)O1` [daunorubicin], in data set [14] (acute lymphoblastic leukemia), the remission rate entry is “high remission rate”. Further, in data set [14] (clinical use), the side effects entry is given as “severe side effects”. Also, in data set [15], the therapeutic effects result is given as “excellent therapeutic effects”. For the same compound, in [7], the “inhibitory effects on cell proliferation” value is recorded as “good inhibitory effects”. Also, in the data set on MOLT-4 cells [10] (40 nM daunorubicin), the “potency on cell proliferation, daunorubicin” value was “very significant potency”. Moreover, the “Plasma Cmax” value in data set [16] (44 mg/m^2, administration on day 1, 3, 5, Cmax) was 26000 ng/mL. For the same compound, in data set [17] (human, plasma, 44 mg/m^2, administration on day 1, 3, 5, converted from Cmax, read-out: Molar concentration after conversion (Cmax)), the Cmax is 49 µM.
For `Nc1ccn([C@@H]2O[C@H](CO)[C@@H](O)[C@@H]2O)c(=O)n1` [Cytarabine, cytarabine, reference compound], the pIC50 in the data set on SUP-T1 cells [1] (setting [18]) is 6.07; with Jurkat, Clone E6-1 cells [2] (setting [18]), 7.00; with MOLT-4 cells [3] (setting [18]) it was 6.92; with PF-382 cells [4] (setting [18]), 7.58; in the data set on CCRF-CEM cells [5] (setting [18]), 7.09. The “inhibitory effects on cell proliferation” value in data set [7] is reported as “good inhibitory effects”. Besides, the Steady plasma concentration in data set [16] (1.8-3 g/m^2, administration with 12 times, steady concentration) was 8 to 24 µg/mL. Further, the concentration in data set [17] (1.8-3 g/m^2, administration with 12 times, converted from steady concentration, read-out: Molar concentration after conversion (steady concentration)) lay within 32 to 97 µM.

The pIC50 is the IC50 on a negative log10 scale, so that one unit is a factor of ten.
